These are literature values, as cited in paper PMC5891061, “Electrophysiological mechanisms of vandetanib-induced cardiotoxicity: Comparison of action potentials in rabbit Purkinje fibers and pluripotent stem cell-derived cardiomyocytes” (PLoS ONE, 2018).

The structures appear in SMILES notation.

For one series, the system named is hiPSC-CMs. The following applies: cited from earlier work.
The target of the next series is INa in hiPSC-CMs (Homo sapiens, UniProt Q14524). The following applies: hiPSC-CMs compared with HEK293 cells; cited from earlier work.
Sequence of INa in hiPSC-CMs (Q14524 212-1075 limits assumed): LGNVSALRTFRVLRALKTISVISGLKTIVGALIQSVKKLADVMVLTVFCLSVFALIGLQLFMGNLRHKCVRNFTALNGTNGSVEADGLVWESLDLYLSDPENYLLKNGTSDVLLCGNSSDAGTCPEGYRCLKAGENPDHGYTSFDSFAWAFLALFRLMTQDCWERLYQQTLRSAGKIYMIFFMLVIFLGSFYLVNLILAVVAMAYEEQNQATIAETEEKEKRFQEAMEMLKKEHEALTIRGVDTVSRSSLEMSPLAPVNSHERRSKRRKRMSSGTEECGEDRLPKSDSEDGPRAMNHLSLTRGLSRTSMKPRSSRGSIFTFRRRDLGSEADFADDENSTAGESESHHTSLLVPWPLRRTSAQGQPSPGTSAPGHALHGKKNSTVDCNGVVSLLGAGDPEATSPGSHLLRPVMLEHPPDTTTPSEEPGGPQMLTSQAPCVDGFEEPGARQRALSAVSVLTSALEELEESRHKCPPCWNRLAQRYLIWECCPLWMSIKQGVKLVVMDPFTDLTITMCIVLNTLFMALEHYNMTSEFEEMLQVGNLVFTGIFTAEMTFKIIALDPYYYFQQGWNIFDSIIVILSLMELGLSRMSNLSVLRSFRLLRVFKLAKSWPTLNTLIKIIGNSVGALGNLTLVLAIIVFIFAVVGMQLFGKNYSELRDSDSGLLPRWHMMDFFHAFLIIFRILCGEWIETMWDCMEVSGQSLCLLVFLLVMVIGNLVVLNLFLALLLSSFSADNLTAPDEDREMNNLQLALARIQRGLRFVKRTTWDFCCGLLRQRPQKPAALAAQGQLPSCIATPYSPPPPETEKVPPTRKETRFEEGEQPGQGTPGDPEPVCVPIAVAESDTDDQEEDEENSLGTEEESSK
Sequence of INa in hiPSC-CMs (Q14524 1131-2016 limits assumed): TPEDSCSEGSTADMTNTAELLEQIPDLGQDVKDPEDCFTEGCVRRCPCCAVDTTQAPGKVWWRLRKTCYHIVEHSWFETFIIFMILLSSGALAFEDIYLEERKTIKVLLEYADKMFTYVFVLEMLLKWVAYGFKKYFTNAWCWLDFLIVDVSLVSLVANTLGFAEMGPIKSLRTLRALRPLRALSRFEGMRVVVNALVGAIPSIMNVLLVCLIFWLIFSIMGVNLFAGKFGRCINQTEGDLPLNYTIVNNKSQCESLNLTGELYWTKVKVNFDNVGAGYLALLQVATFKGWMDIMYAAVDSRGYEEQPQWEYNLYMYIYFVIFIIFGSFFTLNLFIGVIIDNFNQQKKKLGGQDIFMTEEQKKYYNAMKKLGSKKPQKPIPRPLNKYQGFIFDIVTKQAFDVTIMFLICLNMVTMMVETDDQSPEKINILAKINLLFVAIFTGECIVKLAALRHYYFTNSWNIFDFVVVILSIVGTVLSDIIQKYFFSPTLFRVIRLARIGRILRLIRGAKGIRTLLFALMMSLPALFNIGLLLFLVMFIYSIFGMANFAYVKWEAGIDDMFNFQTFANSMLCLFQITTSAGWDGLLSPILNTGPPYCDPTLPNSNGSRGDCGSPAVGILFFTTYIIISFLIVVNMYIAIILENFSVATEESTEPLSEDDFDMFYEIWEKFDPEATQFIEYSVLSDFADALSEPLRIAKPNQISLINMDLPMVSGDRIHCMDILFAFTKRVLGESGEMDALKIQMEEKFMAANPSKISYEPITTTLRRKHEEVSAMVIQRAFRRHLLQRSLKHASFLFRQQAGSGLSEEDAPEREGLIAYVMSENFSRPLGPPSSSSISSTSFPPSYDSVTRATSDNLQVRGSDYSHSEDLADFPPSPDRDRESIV

Regarding `CCc1nn(CCCN2CCN(c3cccc(Cl)c3)CC2)c(=O)n1CCOc1ccccc1` [nefazodone], the “Effect on Vmax” value in the series on hiPSC-CMs is listed as “significantly decreased”. The “Block of INa, sensitivity” value on INa in hiPSC-CMs is “greater sensitivity than in HEK293 cells”.
